What was measured:
Type in all cases: toxicity, cell-based
[1] = test system: HEK-293T; assay: Incucyte cell viability with HEK293T; details: human, 10 µM, compound concentration 10 uM
[2] = test system: Fibroblast; assay: Incucyte cell viability with human fibroblast; details: 10 µM, compound concentration 10 uM
[3] = test system: U2OS; assay: Incucyte cell viability with U2OS; details: human, 10 µM, compound concentration 10 uM
[4] = 0 h, replicate number 1, timepoint 0 hours
[5] = 0 h, replicate number 2, timepoint 0 hours
[6] = 6 h, replicate number 1, timepoint 6 hours
[7] = 12 h, replicate number 1, timepoint 12 hours
[8] = 18 h, replicate number 1, timepoint 18 hours
[9] = 24 h, replicate number 1, timepoint 24 hours
[10] = 6 h, replicate number 2, timepoint 6 hours
[11] = 12 h, replicate number 2, timepoint 12 hours
[12] = 18 h, replicate number 2, timepoint 18 hours
[13] = 24 h, replicate number 2, timepoint 24 hours
Further: filed as whole numbers so only -1 and 0 and 1 occur.

Row | Compound | Growth Rate [1, 4] | Growth Rate [1, 5] | Growth Rate [1, 6] | Growth Rate [1, 7] | Growth Rate [1, 8] | Growth Rate [1, 9] | Growth Rate [2, 4] | Growth Rate [2, 6] | Growth Rate [2, 7] | Growth Rate [2, 8] | Growth Rate [2, 9] | Growth Rate [3, 4] | Growth Rate [3, 5] | Growth Rate [3, 7] | Growth Rate [3, 11] | Growth Rate [3, 8] | Growth Rate [3, 9] | Growth Rate [1, 11] | Growth Rate [1, 13] | Growth Rate [3, 6] | further results
1 | CCC1(C2=NCCN2)Cc2ccccc2O1 (stereo not given) [EFAROXAN] | 1 | 0 | 1 | 1 | 1 | 1 | 0 | 0 | 0 | 0 | 0 | 0 | 1 | 0 | 1 | 0 | 1 |  |  |  | Growth Rate [2, 5]: 1; Growth Rate [3, 10]: 1
2 | CNc1cc2[nH]c(=O)n(-c3ccc(NC(=O)NS(=O)(=O)c4ccc(Cl)s4)cc3)c(=O)c2cc1F [ELINOGREL] | 1 | 0 | 0 | 0 | 0 | 0 | 0 |  | 1 | 1 | 1 | 1 |  | 0 | 1 | 0 | 0 | 1 | 1 | 0 | Growth Rate [1, 12]: 1; Growth Rate [2, 5]: 1; Growth Rate [2, 10]: 0; Growth Rate [2, 11]: 0; Growth Rate [2, 12]: 0; Growth Rate [2, 13]: 0; Growth Rate [3, 12]: 1; Growth Rate [3, 13]: 1
3 | CN1CC(=O)N=C1NC(=O)Nc1cccc(Cl)c1 [FENOBAM ANHYDROUS] | 0 |  | 1 | 1 | 1 | 1 | 0 |  | 1 | 1 | 1 | 0 |  | 0 | 1 | 1 | 1 | 0 | 0 |  | Growth Rate [1, 12]: 0; Growth Rate [3, 10]: 1
4 | CN(C)CCCn1cc(C2=C(c3c[nH]c4ccccc34)C(=O)NC2=O)c2ccccc21 [GF-109203] | 0 | 1 | 0 | 0 | 0 | 0 | 0 |  | 1 | 0 | 0 |  | 0 | 1 |  | 0 | 0 |  |  |  | Growth Rate [2, 12]: 1
5 | COc1ccc(COc2ccc(Cc3cnc(N)nc3N)cc2OC)cc1 [GW632580X] |  |  | 0 | 0 | 0 | 0 | 1 | 1 | 1 | 1 | 1 | 0 |  | 1 | 0 | 1 | 1 |  |  | 0 | Growth Rate [2, 10]: 0; Growth Rate [2, 11]: 0; Growth Rate [2, 12]: 0; Growth Rate [2, 13]: 0; Growth Rate [3, 12]: 0; Growth Rate [3, 13]: 0
6 | N#Cc1ccccc1OCC(O)CNCCNC(=O)Nc1ccccc1 (stereo not given) [ICI-89406] | 1 | 0 | 0 | 0 | 1 | 1 | 0 | 0 | 0 | 0 | 0 | 0 |  | 0 |  | 0 | 1 | 1 |  | 1 | Growth Rate [3, 10]: 0; Growth Rate [3, 13]: 0
7 | Cc1cccc(NC(=O)N[C@@H]2N=C(c3ccccc3)c3ccccc3N(C)C2=O)c1 [L-365260] | 0 |  | 0 | 0 | 0 | 0 | 0 |  | 1 | 0 | 1 | 0 | 1 | 1 | 0 | 0 | 0 |  |  | 0 | Growth Rate [3, 13]: 1
8 | CCC(=O)N1CC[C@H](Nc2ncnc3c2CN(c2cnc(OC)c(C(F)(F)F)c2)CC3)C1 [LENIOLISIB] |  |  |  |  |  |  |  | 0 | 0 | 0 | 0 | 0 | 1 | 0 | 1 | 0 | 0 | 1 | 1 | 0 | Growth Rate [1, 10]: 0; Growth Rate [2, 5]: 1
9 | CCCCc1nc(Cl)c(CO)n1Cc1ccc(-c2ccccc2-c2nn[nH]n2)cc1 [LOSARTAN] | 0 |  | 1 | 1 | 1 | 1 | 0 | 1 | 1 | 1 | 1 | 0 |  | 1 |  | 0 | 0 | 0 | 0 | 0 | Growth Rate [1, 10]: 0; Growth Rate [1, 12]: 0; Growth Rate [2, 10]: 0; Growth Rate [2, 11]: 0; Growth Rate [2, 12]: 0; Growth Rate [2, 13]: 0; Growth Rate [3, 10]: 1; Growth Rate [3, 12]: 1; Growth Rate [3, 13]: 1
10 | O=C(NOC[C@H](O)CO)c1ccc(F)c(F)c1Nc1ccc(I)cc1F [MIRDAMETINIB] | 0 | 1 |  |  |  |  |  | 1 | 1 | 1 | 1 |  | 0 | 0 |  | 0 | 0 |  | 1 | 0 | Growth Rate [2, 5]: 0; Growth Rate [2, 10]: 0

Source: ChEMBL document CHEMBL4689842, “EUbOPEN Chemogenomics Library wave 1” (2021)
